Key:
[1] = tested on: NCI-H460 non-small cell lung carcinoma; assay: Antitumor effect of carboplatin with and without acetyl L-carnitine, s.c. xenograft
Protocol: Treatments started three days after cancer injection. Mice were subdivided (8 mice/group) in the following experimental groups: vehicle receiving only sterile water, carboplatin 40 mg/kg, i.p. q4d/wx3w; acetyl L-carnitine (200 mg/kg po, qdx5/wx3w)+carboplatin.
Body weight recording was carried out through the study.

[2] = tested on: A2780/Dx multidrug-resistant ovarian carcinoma
Protocol: A2780/Dx cancer cells were injected subcutaneously (s.c.) in the right flank of CD1 nude mice (5×10^6/100 μL/mouse). Treatments started eleven days after cancer injection.
Mice were subdivided (10 mice/group) in the following experimental groups: doxorubicin was given intravenously according to the schedule q7dx3 and acetyl-L-carnitine according to the schedule qdx5/wx3w.
Acetyl L-carnitine was administered immediately before the agent given in combination.
To evaluate the anticancer activity, tumor diameters were measured with a Vernier caliper. The formula TV (mm^3)=[length (mm)×width (mm)^2]/2 was used, where the width and the length are the shortest and the longest diameters of each cancer, respectively. Efficacy of the molecule was evaluated as tumor volume inhibition (TVI %) according to the equation: % TVI=100-[(mean cancer weight of treated mice/mean cancer weight of control group)×100]. and Log10 cell kill (LCK) calculated by the formula LCK=(T−C)/3.32×DT, where T and C were the mean times (days) required for treated (T) and control (C) tumors, respectively, to reach 1 cm^3, and DT was the doubling time of control tumors. When tumors reached a volume of about 2 cm^3, mice were sacrificed by cervical dislocation.

[3] = tested on: NCI-H460 non-small cell lung carcinoma; assay: Antitumor activity of cisplatin in combination with L-carnitine, s.c. xenograft; assay type: in vivo; conditions: L-carnitine 200 mg/kg po given chronically
Protocol: Treatments started three days after tumor injection.
To evaluate the antitumor activity, tumor diameters were measured with a Vernier caliper.
When tumors reached a volume of 1-2 cm^3, mice were sacrificed by cervical dislocation. Body weight recording was carried out through the study and mortality was noted.

tumour growth = conditions: WO/2000/06134, cited from earlier work
[4] = tested on: A2780/Dx multidrug-resistant ovarian carcinoma cells; assay: Antiproliferative activity of cisplatin with and without acetyl L-carnitine, MTT assay; assay type: cell-based
Protocol: (§1) Moreover, the activity was also evaluated on two prostate tumor cell lines with p53 wild-type (LnCaP) or p53 null (PC3). […] The number of surviving cells was finally determined by the tetrazolium salt (MTT) assay, as described by Hansen M B et al. (Re-examination and further development of a precise and rapid dye method for measuring cell growth/cell kill. J. Immunol. Methods 119: 203-10, 1989). […] In this case the statistical comparison was performed by Mann-Whitney test.
(§2) To test the effects of the compounds on cell growth, tumor cells were seeded in 96-well tissue culture plates at approximately 10% confluence and were allowed to attach and recover for at least 24 h. […] Plates were kept at. 37° C. in incubator with 5% CO2 for 2 h for the formation of blu chrystals. The supernatant was removed and 100 μL/well of lysant medium were added. Plates were kept under stirring for 60 min. The survival cell was determined as optical density by a Multiskan spectrofluorimeter at 570 nm.

[5] = tested on: NCI-H460 non-small cell lung carcinoma cells; assay: as above; assay type: cell-based
Protocol: as §1, §2

[6] = tested on: LnCaP prostate carcinoma cells (p53 wild-type); assay: as above; assay type: cell-based; conditions: acetyl L-carnitine 10 mM; ≧72 h of exposure; 0.1% FBS
Protocol: as §1
(§3) To test the effects of the compounds on cell growth, tumor cells were seeded in 96-well tissue culture plates at approximately 10% confluence and were allowed to attach and recover for at least 24 h. Tumor cells were exposed to compounds for 72 h or 6 days in 0.1% FBS at 37° C., then medium culture was removed and 100 μL/well of medium were added containing 25 μL/well of a solution 5 mg/mL MTT (final 1 mg/mL). Plates were kept at. 37° C. in incubator with 5% CO2 for 2 h for the formation of blu chrystals. The supernatant was removed and 100 μL/well of lysant medium were added. Plates were kept under stirring for 60 min. The survival cell was determined as optical density by a Multiskan spectrofluorimeter at 570 nm.

[7] = tested on: NCI-H1650 non-small cell lung carcinoma cells; assay: as above; assay type: cell-based
Protocol: as §1, §3

[8] = tested on: SJSA-1 (with amplification of mdm2) osteosarcoma cells; assay: as above; assay type: cell-based
Protocol: as §1, §3

lung metastases [9] = conditions: WO/2000/06134; ALC orally 100 mg/kg; cited from earlier work
lung metastases [10] = conditions: ALC 100 mg/kg/day p.o.; cited from earlier work
[11] = day +31, carboplatin 40 mg/kg ip q4d/wx3w, alone or with acetyl L-carnitine 200 mg/kg po qdx5/wx3w
[12] = day +24, doxorubicin 6 mg/kg iv, alone or with acetyl L-carnitine 200 mg/kg po
[13] = acetyl L-carnitine 1 mM, same schedule and serum conditions
[14] = acetyl L-carnitine 10 mM, 72 h, medium with 10% FBS
[15] = acetyl L-carnitine 10 mM, ≧72 h of exposure, 0.1% FBS

## N.N.O=C([O-])C1(C(=O)[O-])CCC1.[Pt+2] [CARBOPLATIN, Carboplatin]
[1]; Log10 cell kill, DT = 3.6 days, carboplatin 40 mg/kg ip, alone or with acetyl L-carnitine 200 mg/kg po
  LCK (1 cm^3): 0.66
[1]; carboplatin 40 mg/kg ip q4d/wx3w, alone or with acetyl L-carnitine 200 mg/kg po qdx5/wx3w
  BWL %: 1%
[1]; [11]
  TV ± SE +31: *704 ± 254 mm^3
  TVI % +31: 48%
[1]; day +31, carboplatin 40 mg/kg ip q4d/wx3w, alone or with acetyl L-carnitine 200 mg/kg po qdx5/wx3w, listed as carboplatin
  TVI % +31: about 48%
[1]; dead/total mice, carboplatin 40 mg/kg ip q4d/wx3w, alone or with acetyl L-carnitine 200 mg/kg po qdx5/wx3w
  LETHAL: 0/8

## COc1cccc2c1C(=O)c1c(O)c3c(c(O)c1C2=O)C[C@@](O)(C(=O)CO)C[C@@H]3O[C@H]1C[C@H](N)[C@H](O)[C@H](C)O1 [Doxorubicin, doxorubicin]
[2]; DT = 2.9 days, doxorubicin 6 mg/kg iv, alone or with acetyl L-carnitine 200 mg/kg po
  LCK (1 cm^3): 0.7
[2]; [12]
  TV ± SE +24: 1059 ± 195 mm^3
  TVI % ± SE +24: **60 ± 11%
[2]; dead/total mice, doxorubicin 6 mg/kg iv, alone or with acetyl L-carnitine 200 mg/kg po
  Leth.: 0/10
[2]; doxorubicin 6 mg/kg iv q7dx3, alone or with acetyl L-carnitine 200 mg/kg po qdx5/wx3w
  BWL % max: 0%

## C[N+](C)(C)C[C@H](O)CC(=O)[O-] [L-carnitine]
[3]
  potentiation of the cytotoxic activity of cisplatin: not able to potentiate the cytotoxic activity of cisplatin

## CC(=O)O[C@H]1C(=O)[C@@]2(C)[C@H]([C@H](OC(=O)c3ccccc3)[C@]3(O)C[C@H](OC(=O)[C@H](O)[C@@H](NC(=O)c4ccccc4)c4ccccc4)C(C)=C1C3(C)C)[C@]1(OC(C)=O)CO[C@@H]1C[C@@H]2O [Paclitaxel]
Tumour growth; ALC orally 100 mg/kg where combined
  TVI: 88%

## CC(=O)O[C@H](CC(=O)[O-])C[N+](C)(C)C [acetyl L-carnitine]
[4]; [13]
  potentiation of the cytotoxic activity of cisplatin: ineffective
[4]; [14]
  potentiation of the cytotoxic activity of cisplatin: failed to increase cisplatin anti-proliferative activity
[4]; [15]
  potentiation of the cytotoxic activity of cisplatin: able to potentiate the cytotoxic activity of cisplatin
[5]; [13]
  potentiation of the cytotoxic activity of cisplatin: ineffective
[5]; [14]
  potentiation of the cytotoxic activity of cisplatin: failed to increase cisplatin anti-proliferative activity
[5]; [15]
  potentiation of the cytotoxic activity of cisplatin: able to potentiate the cytotoxic activity of cisplatin
[6]
  potentiation of the cytotoxic activity of cisplatin: able to potentiate the cytotoxic activity of cisplatin
[7]; [13]
  potentiation of the cytotoxic activity of cisplatin: ineffective
[7]; [14]
  potentiation of the cytotoxic activity of cisplatin: failed to increase cisplatin anti-proliferative activity
[7]; [15]
  potentiation of the cytotoxic activity of cisplatin: able to potentiate the cytotoxic activity of cisplatin
[8]; [13]
  potentiation of the cytotoxic activity of cisplatin: ineffective
[8]; [14]
  potentiation of the cytotoxic activity of cisplatin: failed to increase cisplatin anti-proliferative activity
[8]; acetyl L-carnitine 10 mM, 72 h of exposure, 0.1% FBS
  potentiation of the cytotoxic activity of cisplatin: able to potentiate the cytotoxic activity of cisplatin
Tumour growth; ALC orally 100 mg/kg
  effect on tumour growth: no effect on tumour growth
Lung metastases [9]
  effect on the formation of lung metastases: significant inhibitory effect on the formation of lung metastases
Lung metastases [10]
  protection from toxicity of the antitumor drug: protects the mice from the lethal toxicity and from the neurotoxicity
